From patent US20240116845A1, “INDENE COMPOUNDS, PHARMACEUTICAL COMPOSITIONS THEREOF, AND THEIR THERAPEUTIC APPLICATIONS” (NucMito Pharmaceuticals Co., Ltd., priority 2021, published 2024)

Tests used:
Assay type in all cases: cell-based
[1] = tested on: alpha-smooth muscle actin (α-SMA); test: Inhibition of TGF-β induced expression of alpha-smooth muscle actin in CFSC cells (western blot); settings: compound at 10 μM, TGF-β (10 ng/mL), 24 hours
Experimental: The ability of a compound to inhibit the TGF-β induced expression of alpha-smooth muscle actin (α-SMA) was evaluated in CCl4-treated fat storing (CFSC) cells. α-SMA is considered as a reliable marker of hepatic stellate cell activation and a key biomarker for liver fibrosis.
CFSC cells maintained in a DMEM medium supplemented with 10% fetal bovine serum were seeded to 12-well culture dishes and grown to a confluence of 60-70% the next day. Culture was changed to a serum-free DMEM medium and the cells were treated with the compound at 10 μM in the presence of TGF-β (10 ng/mL). The cells were incubated for another 24 hours. All culture was maintained at 37° C. in 5% carbon dioxide.
An NP-40 lysate solution (50 mM Tris, pH 7.4, 150 mM NaCl, 1% NP-40) with EDTA free cocktail added was used to lyse the cells on ice for 30 min. The lysate was collected and centrifuged at 4° C. for 10 min at 12,000 rpm. The pellet was discarded and the supernatant was transferred to a new tube. The cell lysate was loaded with 5× loading buffer and boiled for 10 min, resolved by 10% SDS-polyacrylamide gel electrophoresis (SDS-PAGE), and transferred to a PVDF membrane. The membrane was blocked with 5% skim milk in Tris-buffered saline and TWEEN® 20 (TBST; 10 mM Tris-HCl, pH 8.0, 150 mM NaCl, 0.1% TWEEN® 20) for 1 h at room temperature and then incubated with α-SMA and β-actin antibodies overnight at 4° C. After washing twice with TBST, the membrane was probed with a […] anti-immunoglobulin (1:5000 dilution) for 1 h at room temperature. After two subsequent rinses in TBST, immunoreactive products were reacted with ECL and visualized by a UVP CHEMSTUDIO™ imaging system. The western blotting bands are quantitated using an ImageJ software. The percentage of inhibition was obtained by calculating the percentage decrease in the band intensity compared to the one treated with TGF-β only.
The results are summarized in Table 1, where A represents a value no less than 80/% inhibition, B represents a value less than 80% but no less than 50% inhibition, C represents a value less than 50% but no less than 30% inhibition, and D represents a value less than 30% inhibition with a compound at 10 μM.

SW480 (colon cancer) = test: Antiproliferative activity, CCK-8 cell viability; settings: Homo sapiens, 72 h, read-out: Inhibition of Cancerous Cells, SW480; for inhibition at 3.3 µM: compound concentration of 3.3 μM; for inhibition at 10 µM: compound concentration of 10 μM; for inhibition at 30 µM: compound concentration of 30 μM
Experimental: (§1) The antiproliferative activity of a compound was determined in the following cell lines: MDA-MB-231 (breast cancer), HepG2 (liver cancer), SW480 (colon cancer), B16F10 (malignant melanoma), A431 (epidermoid carcinoma), A549 (lung adenocarcinoma), and HeLa (cervical cancer). MDA-MB-231, HepG2, SW480, B16F10, and A431 cells were cultured in Dulbecco's modified Eagle's medium (DMEM) containing 10% fetal bovine serum (FBS). HeLa cells were cultured in MEM/EBSS (MEM) containing 10% FBS. A549 cells were maintained in Kaighn's modification of Ham's F-12 medium containing 10% FBS. The Cell Counting Kit-8 (CCK-8) assay was used to determine the cell viability of cells following treatment with the compound.
(§2) Briefly, cells were seeded in a 96-well plate at a density of 2,000-5,000 cells/well. Following attachment, the cells were treated with the compound in media at a compound concentration of 3.3 μM, 10 μM, or 30 μM, or DMSO as a control. After the cells were incubated at 37° C. for 72 h, the CCK-8 solution (10 μL) was added to each well. After incubation at 37° C. for 4 h, the absorbance value of each well was determined using a multi-well plate reader at 450 nm. The percentage of cell viability was determined with respect to the DMSO-treated cells. The results were summarized in Table 2-4 below, wherein A represents no less than 50% inhibition of cell growth; B represents less than 50% but no less than 30% inhibition of cell growth; C represents less than 30% inhibition of cell growth.

HeLa (cervical cancer) = test: Antiproliferative activity, CCK-8 cell viability; settings: Homo sapiens, 72 h, read-out: Inhibition of Cancerous Cells, HELA; for inhibition at 3.3 µM: compound concentration of 3.3 μM; for inhibition at 10 µM: compound concentration of 10 μM; for inhibition at 30 µM: compound concentration of 30 μM
Experimental: as §1, §2

[2] = tested on: B16F10 (malignant melanoma); test: Antiproliferative activity, CCK-8 cell viability; settings: Mus musculus, B16-F10, 72 h, read-out: Inhibition of Cancerous Cells, B16F10; for inhibition at 3.3 µM: compound concentration of 3.3 μM; for inhibition at 10 µM: compound concentration of 10 μM; for inhibition at 30 µM: compound concentration of 30 μM
Experimental: as §1, §2

HepG2 (liver cancer) = test: Antiproliferative activity, CCK-8 cell viability; settings: Homo sapiens, 72 h, read-out: Inhibition of Cancerous Cells, HepG2; for inhibition at 3.3 µM: compound concentration of 3.3 μM; for inhibition at 10 µM: compound concentration of 10 μM; for inhibition at 30 µM: compound concentration of 30 μM
Experimental: as §1, §2

[3] = tested on: A549 (lung adenocarcinoma); test: Antiproliferative activity, CCK-8 cell viability; settings: Homo sapiens, 72 h, read-out: Inhibition of Cancerous Cells, A549; for inhibition at 3.3 µM: compound concentration of 3.3 μM; for inhibition at 10 µM: compound concentration of 10 μM; for inhibition at 30 µM: compound concentration of 30 μM
Experimental: as §1, §2

[4] = tested on: A431 (epidermoid carcinoma); test: Antiproliferative activity, CCK-8 cell viability; settings: Homo sapiens, A-431, 72 h, read-out: Inhibition of Cancerous Cells, A431; for inhibition at 3.3 µM: compound concentration of 3.3 μM; for inhibition at 10 µM: compound concentration of 10 μM; for inhibition at 30 µM: compound concentration of 30 μM
Experimental: as §1, §2

[5] = tested on: MDA-MB-231 (breast cancer); test: Antiproliferative activity, CCK-8 cell viability; settings: Homo sapiens, 72 h, read-out: Inhibition of Cancerous Cells, MDA-MB-231; for inhibition at 3.3 µM: compound concentration of 3.3 μM; for inhibition at 10 µM: compound concentration of 10 μM; for inhibition at 30 µM: compound concentration of 30 μM
Experimental: as §1, §2

For `CC1=C(CC(=O)O)c2cc(F)ccc2/C1=C\c1ccc(Cc2ccc(F)cc2)cc1` [Compound A3, 2-[(1Z)-5-Fluoro-2-methyl-1-({4-[4-fluorobenzyl]phenyl}methylidene)-1H-inden-3-yl]acetic acid], the inhibition at 10 µM [1] was ≥ 80%, the inhibition at 3.3 µM (SW480 (colon cancer)) was ≥ 50% and the inhibition at 10 µM (SW480 (colon cancer)) was ≥ 50%. The inhibition at 30 µM (SW480 (colon cancer)) was ≥ 50%, the inhibition at 3.3 µM (HeLa (cervical cancer)) was < 30% and the inhibition at 10 µM (HeLa (cervical cancer)) was 30 to 50%. The inhibition at 30 µM (HeLa (cervical cancer)) was ≥ 50%, the inhibition at 3.3 µM [2] was < 30% and the inhibition at 10 µM [2] was 30 to 50%. For the same compound, the inhibition at 30 µM [2] was ≥ 50%, the inhibition at 3.3 µM (HepG2 (liver cancer)) was ≥ 50% and the inhibition at 10 µM (HepG2 (liver cancer)) was ≥ 50%. The inhibition at 30 µM (HepG2 (liver cancer)) was ≥ 50%, the inhibition at 3.3 µM [3] was < 30% and the inhibition at 10 µM [3] was ≥ 50%. For the same compound, the inhibition at 30 µM [3] was ≥ 50%, the inhibition at 3.3 µM [4] was < 30% and the inhibition at 10 µM [4] was ≥ 50%. The inhibition at 30 µM [4] was ≥ 50%, the inhibition at 3.3 µM [5] was ≥ 50% and the inhibition at 10 µM [5] was ≥ 50%. The inhibition at 30 µM [5] was ≥ 50%.

With `CC1=C(CC(=O)O)c2cc(F)ccc2/C1=C\c1cccc(OCc2ccccc2)c1` [Compound A4, 2-[(1Z)-5-Fluoro-1-(3-(benzyloxy)benzylidene)-2-methyl-1H-inden-3-yl]-acetic acid] the inhibition at 10 µM [1] was 50 to 80%, the inhibition at 3.3 µM (SW480 (colon cancer)) was 30 to 50% and the inhibition at 10 µM (SW480 (colon cancer)) was ≥ 50%. The inhibition at 30 µM (SW480 (colon cancer)) was ≥ 50%, the inhibition at 3.3 µM (HeLa (cervical cancer)) was 30 to 50% and the inhibition at 10 µM (HeLa (cervical cancer)) was ≥ 50%. For the same compound, the inhibition at 30 µM (HeLa (cervical cancer)) was ≥ 50%, the inhibition at 3.3 µM [2] was ≥ 50% and the inhibition at 10 µM [2] was ≥ 50%. For the same compound, the inhibition at 30 µM [2] was ≥ 50%, the inhibition at 3.3 µM (HepG2 (liver cancer)) was < 30% and the inhibition at 10 µM (HepG2 (liver cancer)) was < 30%. The inhibition at 30 µM (HepG2 (liver cancer)) was ≥ 50%, the inhibition at 3.3 µM [3] was 30 to 50% and the inhibition at 10 µM [3] was ≥ 50%. The inhibition at 30 µM [3] was ≥ 50%, the inhibition at 3.3 µM [4] was 30 to 50% and the inhibition at 10 µM [4] was ≥ 50%. The inhibition at 30 µM [4] was ≥ 50%, the inhibition at 3.3 µM [5] was ≥ 50% and the inhibition at 10 µM [5] was ≥ 50%. For the same compound, the inhibition at 30 µM [5] was ≥ 50%.

With `CC1=C(CC(=O)O)c2cc(F)ccc2/C1=C\c1cccc(COc2ccccc2)c1` [Compound A5, (Z)-2-(5-Fluoro-2-methyl-1-(3-(phenoxymethyl)benzylidene)-1H-inden-3-yl)acetic acid] the inhibition at 10 µM [1] was ≥ 80%, the inhibition at 3.3 µM (SW480 (colon cancer)) was ≥ 50% and the inhibition at 10 µM (SW480 (colon cancer)) was ≥ 50%. The inhibition at 30 µM (SW480 (colon cancer)) was ≥ 50%, the inhibition at 3.3 µM (HeLa (cervical cancer)) was < 30% and the inhibition at 10 µM (HeLa (cervical cancer)) was 30 to 50%. The inhibition at 30 µM (HeLa (cervical cancer)) was ≥ 50%, the inhibition at 3.3 µM [2] was < 30% and the inhibition at 10 µM [2] was 30 to 50%. For the same compound, the inhibition at 30 µM [2] was ≥ 50%, the inhibition at 3.3 µM (HepG2 (liver cancer)) was ≥ 50% and the inhibition at 10 µM (HepG2 (liver cancer)) was ≥ 50%. The inhibition at 30 µM (HepG2 (liver cancer)) was ≥ 50%, the inhibition at 3.3 µM [3] was 30 to 50% and the inhibition at 10 µM [3] was 30 to 50%. The inhibition at 30 µM [3] was ≥ 50%, the inhibition at 3.3 µM [4] was < 30% and the inhibition at 10 µM [4] was 30 to 50%. The inhibition at 30 µM [4] was ≥ 50%, the inhibition at 3.3 µM [5] was ≥ 50% and the inhibition at 10 µM [5] was ≥ 50%. The inhibition at 30 µM [5] was ≥ 50%.

`CC1=C(CC(=O)O)c2cc(F)ccc2/C1=C\c1cccc(COc2ccc(F)cc2)c1` [Compound A6, 2-[(1Z)-5-Fluoro-1-({3-[(4-fluorophenoxy)methyl]phenyl}methylidene)-2-methyl-1H-inden-3-yl]acetic acid] was tested, and the inhibition at 10 µM [1] was ≥ 80%, the inhibition at 3.3 µM (SW480 (colon cancer)) was < 30% and the inhibition at 10 µM (SW480 (colon cancer)) was ≥ 50%. The inhibition at 30 µM (SW480 (colon cancer)) was ≥ 50%, the inhibition at 3.3 µM (HeLa (cervical cancer)) was ≥ 50% and the inhibition at 10 µM (HeLa (cervical cancer)) was ≥ 50%. The inhibition at 30 µM (HeLa (cervical cancer)) was ≥ 50%, the inhibition at 3.3 µM [2] was < 30% and the inhibition at 10 µM [2] was 30 to 50%. The inhibition at 30 µM [2] was ≥ 50%, the inhibition at 3.3 µM (HepG2 (liver cancer)) was ≥ 50% and the inhibition at 10 µM (HepG2 (liver cancer)) was ≥ 50%. The inhibition at 30 µM (HepG2 (liver cancer)) was ≥ 50%, the inhibition at 3.3 µM [3] was < 30% and the inhibition at 10 µM [3] was 30 to 50%. The inhibition at 30 µM [3] was ≥ 50%, the inhibition at 3.3 µM [4] was 30 to 50% and the inhibition at 10 µM [4] was ≥ 50%. The inhibition at 30 µM [4] was ≥ 50%, the inhibition at 3.3 µM [5] was ≥ 50% and the inhibition at 10 µM [5] was ≥ 50%. The inhibition at 30 µM [5] was ≥ 50%.

With `CC1=C(CC(=O)O)c2cc(F)ccc2/C1=C\c1ccc(CCc2ccccc2)cc1` [Compound A8, 2-[(1Z)-5-Fluoro-2-methyl-1-{[4-(2-phenylethyl)phenyl]methylidene}-1H-inden-3-yl]acetic acid] the inhibition at 10 µM [1] was ≥ 80%, the inhibition at 3.3 µM (SW480 (colon cancer)) was 30 to 50% and the inhibition at 10 µM (SW480 (colon cancer)) was ≥ 50%. For the same compound, the inhibition at 30 µM (SW480 (colon cancer)) was ≥ 50%, the inhibition at 3.3 µM (HeLa (cervical cancer)) was < 30% and the inhibition at 10 µM (HeLa (cervical cancer)) was < 30%. For the same compound, the inhibition at 30 µM (HeLa (cervical cancer)) was ≥ 50%, the inhibition at 3.3 µM [2] was < 30% and the inhibition at 10 µM [2] was < 30%. The inhibition at 30 µM [2] was ≥ 50%, the inhibition at 3.3 µM (HepG2 (liver cancer)) was 30 to 50% and the inhibition at 10 µM (HepG2 (liver cancer)) was 30 to 50%. The inhibition at 30 µM (HepG2 (liver cancer)) was ≥ 50%, the inhibition at 3.3 µM [3] was < 30% and the inhibition at 10 µM [3] was ≥ 50%. The inhibition at 30 µM [3] was ≥ 50%, the inhibition at 3.3 µM [4] was 30 to 50% and the inhibition at 10 µM [4] was ≥ 50%. The inhibition at 30 µM [4] was ≥ 50%, the inhibition at 3.3 µM [5] was 30 to 50% and the inhibition at 10 µM [5] was ≥ 50%. For the same compound, the inhibition at 30 µM [5] was ≥ 50%.
